Measured values taken from publication PMC6381024, “Probing Anti-inflammatory Properties Independent of NF-κB Through Conformational Constraint of Peptide-Based Interleukin-1 Receptor Biased Ligands” (Frontiers in Chemistry, 2019).

Tests used:
[1] = test system: IL-1β; assay: qPCR of IL-1β-induced IL-1β expression in HEK-Blue IL-33/IL-1β cells; format: cell-based, human; set-up: key to qPCR IL-1β (heatmap grade of inhibition): 0: No effect; No effect 01234 Maximum inhibition/efficacy; No effect 01234 Maximum inhibition/efficacy; No effect 01234 Maximum inhibition/efficacy; 4: Maximum inhibition/efficacy; conditions: for qPCR IL-1β (heatmap grade of inhibition): HEK-Blue cells, peptide 10^-6 M or Kineret 1.0 mg/mL 30 min, then IL-1β 100 ng/mL 4 h (legend: overnight); for Suppression of IL-1β transcription: HEK blue cells, 10^-6 M pre-treatment, IL-1β stimulation
Experimental: HEK-Blue IL-33/IL-1β cells were purchased from InvivoGen (San Diego, CA) and used at passages under 15. HEK-Blue cells were cultured in DMEM growth medium supplemented with 10% serum, 50 U/mL penicillin, […] streptomycin, […] zeocin, and […] hygromycin. Cells were grown in regular conditions (37°C, 5% CO2). Cells were serum starved overnight and treated with 100 ng/mL IL-1β for 4 h. Cells were pre-incubated for 30 min with peptides 1, 5, or 6 (10^−6M) or Kineret (1.0 mg/mL) prior to the experiments to reach equilibrium (n = 4 each treatment). Cells were harvested and incubated for 5 min in RIBOzol (AMRESCO). RNA was extracted according to manufacturer's protocol and RNA concentration and integrity were measured with a NanoDrop 1,000 spectrophotometer. A total of 500 ng RNA was used to synthetize cDNA using iScript Reverse Transcription SuperMix (Bio-Rad, Hercules, CA). Quantitative gene expression analysis was performed on Stratagene MXPro3000 (Stratagene) with SYBR Green Master Mix (Bio-Rad). Gene expression levels were normalized to 18S universal primer (Ambion Life Technology, Burlington ON, Canada). Genes analyzed include IL1β, IL6, and PTGHS2 [Prostaglandin H synthetase 2 or cyclooxygenase-2 (COX-2)]. Data are representative of 3 experiments (each with n = 4 per treatment group).
Figure 8 The effects of peptides 1, 5, and 6 on the expression of pro-inflammatory genes. HEK-Blue cells were pre-treated with peptides 1, 5, and 6 as above and stimulated with IL-1β overnight. qPCR was performed on cell lysates using 18S rRNA as internal control. Graphs are sorted in columns by gene of interest (COX-2, IL-1β, or IL-6) and rows by peptide configuration [(3R) or (3S)]. Results are representative of an average of 3 independent experiments (each with n = 4 per treatment group) and are expressed as a fold-change of the non-stimulated control: ^*p < 0.05, ^**p < 0.01, ^***p < 0.001, ^****p < 0.0001 compared to group treated only with IL-1β. Treatment groups that are not labeled with asterisks are statistically non-significant compared to group treated only with IL-1β.

[2] = test system: Sprague Dawley rat pups; assay: Oxygen-induced retinopathy (OIR), retinal vaso-obliteration in rat pups; format: in vivo; set-up: key to In vivo OIR (heatmap grade of efficacy): 0: No effect; No effect 01234 Maximum inhibition/efficacy; No effect 01234 Maximum inhibition/efficacy; No effect 01234 Maximum inhibition/efficacy; 4: Maximum inhibition/efficacy; conditions: for In vivo OIR (heatmap grade of efficacy): Sprague Dawley rat pups, 80% O2 P5-P10, Kineret 3 mg/kg/day (legend: 15 mg/kg/day), twice-daily i.p.; for In vivo OIR (heatmap grade of efficacy) / Extent of vaso-obliteration (area as percentage of total retinal area) after treatment: peptides 2 mg/kg/day; for Extent of vaso-obliteration (area as percentage of total retinal area) after treatment / Efficacy against vaso-obliteration in the OIR model: rat pups, 80% oxygen days 5 to 10; for Extent of vaso-obliteration (area as percentage of total retinal area) after treatment: Kineret 3 mg/kg/day (legend: 15 mg/kg/day) i.p., untreated ~35%; for Efficacy against vaso-obliteration in the OIR model: 2 mg/kg/day i.p.
Source text: On P5, litters were transferred to a controlled hyperoxic environment (Biospherix OxyCycler A84XOV) and maintained at 80 ± 1% O2, which is used to induce vaso-obliteration of the retinal vasculature. At this timepoint, the vasculature is immature and particularly susceptible to […] insults resulting in vaso-obliteration, a defining characteristic of the early stage of retinopathies in premature infants (Garner and Ashton, [1971]). Control litters were not exposed to hyperoxia and were kept in standard conditions with room air (21% O2). To control for the effects of hyperoxia on the lactation of the dams, dams of hyperoxic litters were switched with dams of control litters on P8.
In litters exposed to hyperoxia, pups were randomized to receive phosphate-buffered saline (PBS) vehicle, 2 mg/kg/day of peptides 1, 5, or 6 or 3 mg/kg/day of Kineret from P5 to P10. These doses were determined from our previous study (Rivera et al., [2013]) and administered in twice-daily intra-peritoneal injections titrated to 20 μL per injection with 28-gauge insulin syringes. A total of 6–8 pups were used for each treatment group.
On P10, pups were euthanized by decapitation under 2% isoflurane anesthesia. Eyes were enucleated and fixed in 4% paraformaldehyde for 1 h at room temperature before washing twice with PBS and storage at 4°C in PBS until further processing.
Under a dissecting microscope, the cornea and lens were gently removed from the eyes and remnants of the hyaloid vasculature were removed from the retinas using surgical scissors and tweezers. The retinas were gently removed from the underlying sclera/choroid complex.
Retinas were treated at room temperature for 1 h with a blocking solution consisting of 1% bovine serum albumin (BSA), 1% normal goat serum, 0.1% Triton X-100 and 0.05% Tween-20 in PBS. The retinas were then double-labeled overnight at 4°C with gentle shaking in an antibody solution consisting of 1 mM CaCl2, 1% Triton X-100, 1% TRITC-conjugated lectin cell endothelial marker from Bandeiraea simplicifolia (Sigma-Aldrich, St Louis, MO) and a 1:500 dilution of rabbit anti-ionized calcium-binding adapter molecule (Iba)-1 antibody (Wako Chemicals USA) in PBS. The retinas were then washed thrice with PBS and incubated with a secondary antibody solution consisting of 1% BSA, 0.1% Triton X-100, 0.05% Tween-20 and 1:500 Alexa-594-conjugated donkey anti-rabbit IgG (ThermoFisher Scientific, Rockford, IL) in PBS for 2 h at room temperature. Retinas were washed thrice with PBS and then flat-mounted onto glass slides with coverslips and Fluoro-Gel mounting medium (Electron Microscopy Sciences, Hatfield, PA).
For assessment of vaso-obliteration, retinas were imaged using an epifluorescence microscope at 10X magnification (Zeiss AxioImager Z2) and version 4.8 of the AxioVision software. Images were captured and stitched together using the software's MosaiX feature. Iba-1 staining was assessed with the same microscope at 20X magnification, and a total of 4 fields per retina were imaged halfway between the optic nerve and the edge of the retina.
The FIJI software was used to the quantify the area of vaso-obliteration in each retina, expressed as a percentage of the area of the whole retina. The number of Iba-1-positive cells was counted using the cell counter plug-in in FIJI, and the average of cell counts in 4 fields per retina was calculated.
Figure 10 The preventive effects of peptides 1, 5, and 6 against vaso-obliteration in an OIR model. Five-days old Sprague Dawley pups and their mothers were kept in 80% oxygen until the 10 day of life, receiving twice-daily intraperitoneal injections of peptides 1, 5, and 6 (2 mg/kg/day), Kineret (15 mg/kg/day) or PBS vehicle (each injection was titrated to a volume of 20 μL). (A) Representative retinal flatmounts stained with FITC-conjugated Bandeiraea simplicifolia lectin, taken at 10X magnification and stitched with MosaiX in Axiovision 4.8. […]

Row | Substance | qPCR IL-1β (heatmap grade of inhibition) [1] | In vivo OIR (heatmap grade of efficacy) [2] | Extent of vaso-obliteration (area as percentage of total retinal area) after treatment [2] | Suppression of IL-1β transcription [1] | Efficacy against vaso-obliteration in the OIR model [2]
1 | Kineret: FDA-approved recombinant IL-1 receptor antagonist | 4 | 3 | 15–20% | – | –
2 | H-D-Arg-D-Tyr-(R)-Agl-(S)-Val-D-Glu-D-Leu-D-Ala-NH2 [[(3R)-Agl^3-(S)-Val^4]-1] | 1 | – | – | ability to suppress the transcription of all three genes was lost | –
3 | H-D-Arg-D-Tyr-D-Thr-D-Val-D-Glu-D-Leu-D-Ala-NH2 [Peptide 1] | 4 | 4 | 15–20% | strong suppression of transcription of all three genes | –
4 | H-D-Arg-D-Tyr-(3R,4S)-Hgl-(S)-Val-D-Glu-D-Leu-D-Ala-NH2 [[(3R,4S)-Hgl^3-(S)-Val^4]-1] | 4 | – | – | – | –
5 | H-D-Arg-D-Tyr-(3R,4S)-Hgl-D-Val-D-Glu-D-Leu-D-Ala-NH2 [[(3R,4S)-Hgl^3]-1] | 4 | 4 | 15–25% | – | –
6 | H-D-Arg-D-Tyr-(3R,4R)-Hgl-(S)-Val-D-Glu-D-Leu-D-Ala-NH2 [[(3R,4R)-Hgl^3-(S)-Val^4]-1] | 3 | – | – | – | –
7 | H-D-Arg-D-Tyr-(3S,4R)-Hgl-D-Val-D-Glu-D-Leu-D-Ala-NH2 [[(3S,4R)-Hgl^3]-1] | 4 | 4 | 15–25% | – | –
8 | H-D-Arg-D-Tyr-(R)-Agl-D-Val-D-Glu-D-Leu-D-Ala-NH2 [[(3R)-Agl^3]-1] | 4 | 0 | – | – | inactivity
9 | H-D-Arg-D-Tyr-(3R,4R)-Hgl-D-Val-D-Glu-D-Leu-D-Ala-NH2 [[(3R,4R)-Hgl^3]-1] | 4 | – | – | – | –
10 | H-D-Arg-D-Tyr-(S)-Agl-(S)-Val-D-Glu-D-Leu-D-Ala-NH2 [[(3S)-Agl^3-(S)-Val^4]-1] | 1 | – | – | ability to suppress the transcription of all three genes was lost | –
11 | H-D-Arg-D-Tyr-(S)-Agl-D-Val-D-Glu-D-Leu-D-Ala-NH2 [[(3S)-Agl^3]-1] | 4 | 1 | – | – | inactivity
